Results: patent publication US9511058B2, “Methods for using carboxamide, sulfonamide and amine compounds” (Rigel Pharmaceuticals, Inc., priority 2010, dated 2016)
Where a name gives a salt, the structure may show the parent alone.

target: AMPK; assay: AMPK activation, enzyme-linked immunosorbent assay; format: biochemical; details: compounds of Table 1 (Table 6)

| SMILES | EC50 |
| --- | --- |
| O=S(=O)(NC1CCNCC1)c1ccc(OC2CCN(c3ccc(C(F)(F)F)cc3)CC2)nc1 [1-55, N-(piperidin-4-yl)-6-(1-(4-(trifluoromethyl)phenyl)piperidin-4-yloxy)pyridine-3-sulfonamide] | 1000 to 5000 nM |
| CC(C)(C)OC(=O)N1CCC(NC2CCc3cc(OC4CCN(c5ccc(C(F)(F)F)cc5)CC4)ccc32)CC1 (stereo not shown) [1-156, tert-butyl 4-(5-(1-(4-(trifluoromethyl)phenyl)piperidin-4-yloxy)-2,3-dihydro-1H-inden-1-ylamino)piperidine-1-carboxylate] | 100 to 500 nM |
| CN(C(=O)c1cc2cc(OC3CCN(c4ccc(C(F)(F)F)cc4)CC3)ccc2o1)C1CCN(Cc2ccccn2)CC1 [1-117, N-methyl-N-(1-(pyridin-2-ylmethyl)piperidin-4-yl)-5-(1-(4-(trifluoromethyl)phenyl)piperidin-4-yloxy)benzofuran-2-carboxamide] | < 100 nM |
| O=C(NC1CCNCC1)c1cc2ccc(OC3CCN(c4ccc(C(F)(F)F)cc4)CC3)cc2o1 [1-84, N-(piperidin-4-yl)-6-(1-(4-(trifluoromethyl)phenyl)piperidin-4-yloxy)benzofuran-2-carboxamide] | 5000 to 10000 nM |
| O=C(c1ccc(F)cc1)N1CCC(NS(=O)(=O)c2ccc(OC3CCN(c4ccc(C(F)(F)F)cc4)CC3)nc2)CC1 [1-60, N-(1-(4-fluorobenzoyl)piperidin-4-yl)-6-(1-(4-(trifluoromethyl)phenyl)piperidin-4-yloxy)pyridine-3-sulfonamide] | > 10000 nM |
| FC(F)(F)c1ccc(N2CCC(Oc3ccc4c(c3)CCC4NC3CCN(Cc4ccncc4)CC3)CC2)cc1 (stereo not shown) [1-158, 1-(pyridin-4-ylmethyl)-N-(5-(1-(4-(trifluoromethyl)phenyl)piperidin-4-yloxy)-2,3-dihydro-1H-inden-1-yl)piperidin-4-amine] | 100 to 500 nM |
| O=C(NC1CCNCC1)c1cc2cc(OC3CCN(c4ccc(C(F)(F)F)cc4)CC3)ccc2s1 [1-150, N-(piperidin-4-yl)-5-(1-(4-(trifluoromethyl)phenyl)piperidin-4-yloxy)benzo[b]thiophene-2-carboxamide] | 1000 to 5000 nM |
| O=C(NC1CCN(S(=O)(=O)c2cccnc2)CC1)c1cc2ccc(OC3CCN(c4ccc(C(F)(F)F)cc4)CC3)cc2o1 [1-106, N-(1-(pyridin-3-ylsulfonyl)piperidin-4-yl)-6-(1-(4-(trifluoromethyl)phenyl)piperidin-4-yloxy)benzofuran-2-carboxamide] | 100 to 500 nM |
| O=S(=O)(NC1CCN(Cc2ccncc2)CC1)c1ccc(OC2CCN(c3ccc(C(F)(F)F)cc3)CC2)nc1 [1-51, N-(1-(pyridin-4-ylmethyl)piperidin-4-yl)-6-(1-(4-(trifluoromethyl)phenyl)piperidin-4-yloxy)pyridine-3-sulfonamide] | 100 to 500 nM |
| CN(C(=O)c1cc2cc(OC3CCN(c4ccc(C(F)(F)F)cc4)CC3)ccc2o1)C1CCN(C(=O)OC(C)(C)C)CC1 [1-102, tert-butyl 4-(N-methyl-5-(1-(4-(trifluoromethyl)phenyl)piperidin-4-yloxy)benzofuran-2-carboxamido)piperidine-1-carboxylate] | 1000 to 5000 nM |
| O=C(NC1CCN(Cc2ccncc2)CC1)c1cc2cc(OC3CCN(c4ccc(C(F)(F)F)cc4)CC3)ccc2o1 [1-76, N-(1-(pyridin-4-ylmethyl)piperidin-4-yl)-5-(1-(4-(trifluoromethyl)phenyl)piperidin-4-yloxy)benzofuran-2-carboxamide] | 100 to 500 nM |
| Cc1c(C(=O)NC2CCN(Cc3cccc(C#N)c3)CC2)oc2cc(OC3CCN(c4ccc(C(F)(F)F)cc4)CC3)ccc12 [1-66, N-(1-(3-cyanobenzyl)piperidin-4-yl)-3-methyl-6-(1-(4-(trifluoromethyl)phenyl)piperidin-4-yloxy)benzofuran-2-carboxamide] | < 100 nM |
| N#Cc1cccc(CN2CCC(NC(=O)c3cc4ccc(OC5CCN(c6ccc(C(F)(F)F)cc6)CC5)cc4s3)CC2)c1 [1-145, N-(1-(3-cyanobenzyl)piperidin-4-yl)-6-(1-(4-(trifluoromethyl)phenyl)piperidin-4-yloxy)benzo[b]thiophene-2-carboxamide] | 100 to 500 nM |

same assay, conditions: compounds of Table 1 (Table 6), formate salt

| SMILES | EC50 |
| --- | --- |
| O=C(NC1CCN(Cc2ccncc2)CC1)c1cc2cc(OC3CCN(c4ccc(C(F)(F)F)cc4)CC3)ccc2o1 [1-105, N-(1-(pyridin-4-ylmethyl)piperidin-4-yl)-5-(1-(4-(trifluoromethyl)phenyl)piperidin-4-yloxy)benzofuran-2-carboxamide, formate salt] | < 100 nM |

same assay, conditions: compounds of Table 2 (Table 7)

| SMILES | EC50 |
| --- | --- |
| NC(=O)c1ccc(CN2CCc3[nH]c4ccc(C(=O)NC5CCN(Cc6ccncc6)CC5)cc4c3C2)cc1 [2-45, 2-(4-carbamoylbenzyl)-N-(1-(pyridin-4-ylmethyl)piperidin-4-yl)-2,3,4,5-tetrahydro-1H-pyrido [4,3-b]indole-8-carboxamide] | > 100000 nM |
| CC(C)(C)OC(=O)N1CCC(NC(=O)c2ccc3[nH]c4c(c3c2)CN(C(=O)OCc2ccccc2)CC4)CC1 [2-3, benzyl 8-(1-(tert-butoxycarbonyl)piperidin-4-ylcarbamoyl)-3,4-dihydro-1H-pyrido[4,3-b]indole-2(5H)-carboxylate] | 10000 to 50000 nM |
| O=C(NC1CCN(C(=O)c2ccc(C(F)(F)F)cc2)CC1)c1ccc2[nH]c3c(c2c1)CN(c1ccc(F)cc1)CC3 [2-41, 2-(4-fluorophenyl)-N-(1-(4-(trifluoromethyl)benzoyl)piperidin-4-yl)-2,3,4,5-tetrahydro-1H-pyrido[4,3-b]indole-8-carboxamide] | 10000 to 50000 nM |
| NC(=O)c1ccc(CN2CCC(NC(=O)c3ccc4[nH]c5c(c4c3)CN(Cc3ccc(C(N)=O)cc3)CC5)CC2)cc1 [2-49, 2-(4-carbamoylbenzyl)-N-(1-(4-carbamoylbenzyl)piperidin-4-yl)-2,3,4,5-tetrahydro-1H-pyrido [4,3-b]indole-8-carboxamide] | > 100000 nM |
| O=C(NC1CCN(Cc2ccccc2)CC1)c1ccc2[nH]c3c(c2c1)CN(C(=O)OCc1ccccc1)CC3 [2-2, benzyl 8-(1-(4-benzyl)piperidin-4-ylcarbamoyl)-3,4-dihydro-1H-pyrido[4,3-b]indole-2(5H)-carboxylate] | 10000 to 50000 nM |

same assay, conditions: compounds of Table 3 (Table 8)

| SMILES | EC50 |
| --- | --- |
| O=C(NC1CCNCC1)c1nc2ccc(OC3CCN(c4ccc(C(F)(F)F)cc4)CC3)cc2o1 [3-5, N-(piperidin-4-yl)-6-(1-(4-(trifluoromethyl)phenyl)piperidin-4-yloxy)benzo[d]oxazole-2-carboxamide] | 10000 to 100000 nM |
| N#Cc1ccc(CN2CCC(NC(=O)c3cnc(OC4CCN(c5ccc(C#N)cc5)CC4)s3)CC2)cc1 [3-24, N-(1-(4-cyanobenzyl)piperidin-4-yl)-2-(1-(4-cyanophenyl)piperidin-4-yloxy)thiazole-5-carboxamide] | < 100 nM |
| O=C(NC1CCN(C(=O)c2ccc(F)cc2)CC1)c1nc2ccc(OC3CCN(c4ccc(C(F)(F)F)cc4)CC3)cc2o1 [3-4, N-(1-(4-fluorobenzoyl)piperidin-4-yl)-6-(1-(4-(trifluoromethyl)phenyl)piperidin-4-yloxy)benzo[d]oxazole-2-carboxamide] | < 100 nM |
| N#Cc1ccc(CN2CCc3ccc(C(=O)NC4CCN(Cc5ccc(C(F)(F)F)cc5)CC4)cc3C2)cc1 [3-39, 2-(4-cyanobenzyl)-N-(1-(4-(trifluoromethyl)benzyl)piperidin-4-yl)-1,2,3,4-tetrahydroisoquinoline-7-carboxamide] | 1000 to 10000 nM |

same assay, conditions: compounds of Table 5 (Table 10)

| SMILES | EC50 |
| --- | --- |
| COC(=O)c1ccc(CN2CCC(NC(=O)c3ccc(OC4CCN(c5ccc(C(F)(F)F)cc5)CC4)c(F)c3)CC2)cc1 [5-33, methyl 4-((4-(3-fluoro-4-(1-(4-(trifluoromethyl)phenyl)piperidin-4-yloxy)benzamido)piperidin-1-yl)methyl)benzoate] | < 1000 nM |
| O=C(NC1CCN(Cc2ccccc2)CC1)c1ccc(OC2CCN(Cc3cccc(C(F)(F)F)c3)CC2)c(F)c1 [5-59, N-(1-benzylpiperidin-4-yl)-3-fluoro-4-(1-(3-(trifluoromethyl)benzyl)piperidin-4-yloxy)benzamide] | < 1000 nM |
| O=C(NC1CCN(Cc2ccccc2)CC1)c1cc(Cl)c(OC2CCN(Cc3ccc(F)c(F)c3)CC2)c(Cl)c1 [5-76, N-(1-benzylpiperidin-4-yl)-3,5-dichloro-4-(1-(3,4-difluorobenzyl)piperidin-4-yloxy)benzamide] | < 1000 nM |
| CC(C)(C)OC(=O)N1CCC(NC(=O)c2ccc(OC3CCN(Cc4ccc(C#N)cc4)CC3)cc2)CC1 [5-78, tert-butyl 4-(4-(1-(4-cyanobenzyl)piperidin-4-yloxy)benzamido)piperidine-1-carboxylate] | < 1000 nM |
| COc1ccc(CN2CCC(Oc3ccc(C(=O)NCCCNC(=O)OC(C)(C)C)cc3Cl)CC2)cc1 [5-97, tert-butyl 3-(3-chloro-4-(1-(4-methoxybenzyl)piperidin-4-yloxy)benzamido)propylcarbamate] | 1000 to 10000 nM |
| CC(C)(C)OC(=O)N1CCC(Oc2ccc(C(=O)NC3CCN(Cc4ccccc4)CC3)cc2F)CC1 [5-92, tert-butyl 4-(4-(1-benzylpiperidin-4-ylcarbamoyl)-2-fluorophenoxy)piperidine-1-carboxylate] | 1000 to 10000 nM |
| Cc1ccc(CN2CCC(Oc3ccc(C(=O)NCCCN4CCOCC4)cc3)CC2)cc1 [5-104, 4-(1-(4-methylbenzyl)piperidin-4-yloxy)-N-(3-morpholinopropyl)benzamide] | 10000 to 20000 nM |
| N#Cc1ccc(CN2CCC(Oc3ccc(C(=O)NC4CCN(Cc5ccccc5)CC4)cc3F)CC2)cc1 [5-41, N-(1-benzylpiperidin-4-yl)-4-(1-(4-cyanobenzyl)piperidin-4-yloxy)-3-fluorobenzamide] | < 1000 nM |
| O=C(NC1CCN(Cc2ccccc2)CC1)c1ccc(OC2CCN(Cc3ccccc3C(F)(F)F)CC2)c(Cl)c1 [5-24, N-(1-benzylpiperidin-4-yl)-3-chloro-4-(1-(2-(trifluoromethyl)benzyl)piperidin-4-yloxy)benzamide] | 10000 to 20000 nM |
| COc1cc(C(=O)NC2CCN(Cc3ccccc3)CC2)ccc1OC1CCN(c2cccs2)CC1 [5-8, N-(1-benzylpiperidin-4-yl)-3-methoxy-4-(1-(thiophen-2-yl)piperidin-4-yloxy)benzamide] | 1000 to 10000 nM |
| O=C(NC1CCN(Cc2ccc(F)cc2)CC1)c1ccc(OC2CCN(c3ccc(C(F)(F)F)cc3)CC2)c(F)c1 [5-27, 3-fluoro-N-(1-(4-fluorobenzyl)piperidin-4-yl)-4-(1-(4-(trifluoromethyl)phenyl)piperidin-4-yloxy)benzamide] | < 1000 nM |
